Tests used:
Assay type in all cases: biochemical
PAK1 [1] = target: T1, PAK1 (Homo sapiens, UniProt Q13153); assay: Additional in vitro PAK1 inhibition assay at ATP 10 uM and 1 mM
Experimental: (§1) Similar in vitro PAK1 and PAK-4 inhibition assays are conducted in compounds for the treatment of cancer, but under ATP concentrations of 10 uM and 1 mM.

PAK4 [2] = target: T2, PAK4 (Homo sapiens, UniProt O96013); assay: Additional in vitro PAK-4 inhibition assay at ATP 10 uM and 1 mM; conditions: 10 μM ATP; read-out: PAK4 IC50 (10 μM ATP)
Experimental: as §1

PAK1 [3] = target: T1, PAK1; assay: In vitro PAK inhibition assay (Z'-LYTE, SelectScreen), PAK1; conditions: read-out: PAK1 IC50
Method in brief: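 The PAK1 reaction on Ser/Thr 19 peptide runs 60 min at room temperature in 50 mM HEPES pH 7.5 with 10 mM MgCl2, 1 mM EGTA, 0.01% BRIJ-35; Z'-LYTE fluorescence read after 60 min development.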

PAK2 (PAK65) = PAK2 (PAK65) (Homo sapiens, UniProt Q13177); assay: In vitro PAK inhibition assay (Z'-LYTE, SelectScreen), PAK2; conditions: read-out: PAK2 IC50
Method in brief: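 Z'-LYTE FRET readout using Ser/Thr 20 peptide (2 μM) with 0.29–6 ng PAK2 in 50 mM HEPES pH 7.5, 0.01% BRIJ-35, 10 mM MgCl2, 1 mM EGTA, 1% DMSO. Reaction and development each ran 60 min at room temperature.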

PAK3 = PAK3 (Homo sapiens, UniProt O75914); assay: In vitro PAK inhibition assay (Z'-LYTE, SelectScreen), PAK3; conditions: read-out: PAK3 IC50
Method in brief: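 Z'-LYTE FRET format: PAK3 with Ser/Thr 20 peptide in 50 mM HEPES pH 7.5, 0.01% BRIJ-35, 10 mM MgCl2, 1 mM EGTA, 1% DMSO final. Kinase reaction 60 min at room temperature, then 60 min development and fluorescence read.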

PAK4 [4] = target: T2, PAK4; assay: In vitro PAK inhibition assay (Z'-LYTE, SelectScreen), PAK4
Method in brief: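 Z'-LYTE FRET assay with 0.1-0.75 ng PAK-4 and 2 μM Ser/Thr 20 peptide in 50 mM HEPES pH 7.5, 10 mM MgCl2, 1 mM EGTA, 0.01% BRIJ-35, 1% DMSO; ATP near apparent Km. 1 h kinase reaction at room temperature, then 1 h development; IC50 from 10-point 3-fold titrations fitted to a sigmoidal dose-response.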

[5] = 10 μM ATP, read-out: PAK1 IC50 (10 μM ATP)
[6] = 1 mM ATP, read-out: PAK1 IC50 (1 mM ATP)

T2 sequence (O96013 whole entry): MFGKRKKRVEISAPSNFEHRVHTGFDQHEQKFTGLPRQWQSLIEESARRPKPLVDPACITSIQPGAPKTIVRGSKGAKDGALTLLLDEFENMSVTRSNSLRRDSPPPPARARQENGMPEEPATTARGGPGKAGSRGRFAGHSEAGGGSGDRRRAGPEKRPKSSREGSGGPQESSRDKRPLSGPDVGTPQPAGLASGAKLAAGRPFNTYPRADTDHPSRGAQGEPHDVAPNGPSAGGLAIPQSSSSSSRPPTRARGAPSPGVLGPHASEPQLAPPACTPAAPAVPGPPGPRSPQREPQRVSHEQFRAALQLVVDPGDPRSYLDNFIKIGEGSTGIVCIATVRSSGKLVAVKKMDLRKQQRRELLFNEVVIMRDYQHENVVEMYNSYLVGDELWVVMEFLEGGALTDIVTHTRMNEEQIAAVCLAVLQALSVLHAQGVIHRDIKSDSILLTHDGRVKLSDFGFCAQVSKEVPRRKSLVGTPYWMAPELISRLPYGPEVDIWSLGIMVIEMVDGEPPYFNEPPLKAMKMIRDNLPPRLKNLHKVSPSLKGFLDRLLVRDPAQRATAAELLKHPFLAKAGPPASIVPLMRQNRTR
T1 sequence (Q13153 whole entry): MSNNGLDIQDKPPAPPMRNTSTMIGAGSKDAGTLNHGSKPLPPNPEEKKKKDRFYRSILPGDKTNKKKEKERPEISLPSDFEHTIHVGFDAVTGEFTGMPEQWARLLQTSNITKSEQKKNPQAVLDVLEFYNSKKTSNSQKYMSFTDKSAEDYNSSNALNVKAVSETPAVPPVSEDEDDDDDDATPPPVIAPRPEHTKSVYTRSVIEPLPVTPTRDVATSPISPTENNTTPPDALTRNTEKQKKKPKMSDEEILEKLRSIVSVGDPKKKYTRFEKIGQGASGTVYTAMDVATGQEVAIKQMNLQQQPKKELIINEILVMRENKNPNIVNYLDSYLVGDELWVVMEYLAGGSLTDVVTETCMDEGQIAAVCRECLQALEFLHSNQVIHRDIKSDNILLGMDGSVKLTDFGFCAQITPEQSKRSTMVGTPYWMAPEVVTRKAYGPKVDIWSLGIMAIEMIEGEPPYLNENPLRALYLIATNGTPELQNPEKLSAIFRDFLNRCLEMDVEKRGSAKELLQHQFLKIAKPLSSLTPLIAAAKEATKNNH
Chain of PAK2 (PAK65) (Q13177 whole entry): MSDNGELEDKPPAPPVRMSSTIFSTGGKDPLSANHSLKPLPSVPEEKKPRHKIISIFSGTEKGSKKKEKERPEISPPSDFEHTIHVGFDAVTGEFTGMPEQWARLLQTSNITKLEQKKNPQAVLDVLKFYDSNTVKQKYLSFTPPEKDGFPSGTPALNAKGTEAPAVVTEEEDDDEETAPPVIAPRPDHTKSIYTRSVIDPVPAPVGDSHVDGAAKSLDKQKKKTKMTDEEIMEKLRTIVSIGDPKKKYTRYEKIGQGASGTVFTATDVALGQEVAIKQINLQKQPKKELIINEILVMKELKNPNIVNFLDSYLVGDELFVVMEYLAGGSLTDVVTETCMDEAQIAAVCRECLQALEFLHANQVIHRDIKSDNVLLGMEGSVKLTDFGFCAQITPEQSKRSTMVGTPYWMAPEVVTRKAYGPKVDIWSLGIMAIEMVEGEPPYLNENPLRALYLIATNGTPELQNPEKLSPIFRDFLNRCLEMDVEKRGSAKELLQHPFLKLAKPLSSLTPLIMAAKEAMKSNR
Chain of PAK3 (O75914 1-544 isoform O75914-2): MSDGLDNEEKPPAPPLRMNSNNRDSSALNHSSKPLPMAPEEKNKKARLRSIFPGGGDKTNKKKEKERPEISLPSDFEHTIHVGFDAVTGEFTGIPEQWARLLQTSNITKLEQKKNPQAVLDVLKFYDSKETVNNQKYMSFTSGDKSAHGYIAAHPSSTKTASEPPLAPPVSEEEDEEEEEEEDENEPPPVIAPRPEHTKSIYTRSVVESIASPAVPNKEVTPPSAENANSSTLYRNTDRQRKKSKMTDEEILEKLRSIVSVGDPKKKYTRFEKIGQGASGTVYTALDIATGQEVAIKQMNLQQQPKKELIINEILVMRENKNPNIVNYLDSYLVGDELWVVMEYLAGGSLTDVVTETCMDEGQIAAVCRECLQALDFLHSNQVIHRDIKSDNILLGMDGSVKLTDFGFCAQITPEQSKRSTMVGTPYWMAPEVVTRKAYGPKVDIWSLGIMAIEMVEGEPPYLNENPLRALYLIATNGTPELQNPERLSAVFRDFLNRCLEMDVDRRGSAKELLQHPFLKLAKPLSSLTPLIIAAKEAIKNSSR

SMILES	IC50 (PAK1 [1]; [5]) [µM]	IC50 (PAK1 [1]; [6]) [µM]	IC50 (PAK4 [2]) [µM]	IC50 (PAK1 [3]) [µM]	IC50 (PAK2 (PAK65)) [µM]	IC50 (PAK3) [µM]	IC50 (PAK4 [4]) [µM]
CCn1c(=O)c(-c2ccc(-c3noc(C)n3)cc2Cl)cc2cnc(NC3CCN(C)C3=O)nc21 (stereo not shown)	≥ 5	≥ 5	≥ 5	–	–	–	–
CCn1c(=O)c(-c2ccc(-c3noc(C)n3)cc2Cl)cc2cnc(NC3CCCC3)nc21	0.5 to 5	≥ 5	0.5 to 5	–	–	–	–
CCn1c(=O)c(-c2ccc(-c3noc(C)n3)cc2Cl)cc2cnc(NC3(C)CC3)nc21	0.5 to 5	≥ 5	≥ 5	–	–	–	–
CCn1c(=O)c(-c2ccc(-c3noc(C)n3)cc2Cl)cc2cnc(NCC(=O)N(C)C)nc21	≥ 5	≥ 5	0.05 to 0.5	–	–	–	–
CCn1c(=O)c(-c2ccc(-c3noc(C)n3)cc2Cl)cc2cnc(NCCCN(C)C)nc21	0.5 to 5	≥ 5	≥ 5	–	–	–	–
CCn1c(=O)c(-c2ccc(-c3noc(C)n3)cc2Cl)cc2cnc(NCC3CCCO3)nc21 (stereo not shown)	0.5 to 5	≥ 5	≥ 5	–	–	–	–
CCn1c(=O)c(-c2ccc(-c3noc(C)n3)cc2Cl)cc2cnc(N[C@H]3CC[C@H](N4CCN(C)CC4)CC3)nc21	0.5 to 5	≥ 5	≥ 5	–	–	–	–
CCn1c(=O)c(-c2ccc(-c3noc(C)n3)cc2Cl)cc2cnc(NCC(C)(C)O)nc21	0.5 to 5	≥ 5	≥ 5	–	–	–	–
CCn1c(=O)c(-c2ccc(-c3noc(C)n3)cc2Cl)cc2cnc(NC3CCC(=O)NC3)nc21 (stereo not shown)	0.5 to 5	≥ 5	≥ 5	–	–	–	–
CCn1c(=O)c(-c2ccc(-c3noc(C)n3)cc2Cl)cc2cnc(NCC3CCOC3)nc21 (stereo not shown)	0.5 to 5	≥ 5	≥ 5	–	–	–	–
CCn1c(=O)c(-c2ccc(-c3noc(C)n3)cc2Cl)cc2cnc(NCc3cccnc3)nc21	0.5 to 5	≥ 5	≥ 5	–	–	–	–
CCn1c(=O)c(-c2ccc(-c3noc(C)n3)cc2Cl)cc2cnc(NCc3ccccc3)nc21	0.5 to 5	≥ 5	≥ 5	–	–	–	–
CCn1c(=O)c(-c2ccc(-c3noc(C)n3)cc2Cl)cc2cnc(NC(C)C)nc21	0.5 to 5	≥ 5	≥ 5	–	–	–	–
Cc1nc(-c2ccc(-c3cc4cnc(NC5CCOCC5)nc4n(C4CCNC4)c3=O)c(Cl)c2)no1 (stereo not shown)	0.5 to 5	≥ 5	≥ 5	–	–	–	–
CCn1c(=O)c(-c2ccc(-c3noc(C)n3)cc2Cl)cc2cnc(NCC3CCOCC3)nc21	0.5 to 5	≥ 5	≥ 5	–	–	–	–
CCn1c(=O)c(-c2ccc(-c3noc(C)n3)cc2Cl)cc2cnc(NCC(=O)NC)nc21	0.5 to 5	≥ 5	≥ 5	–	–	–	–
Cc1nc(-c2ccc(-c3cc4cnc(NC5CCOCC5)nc4n(Cc4ccccc4)c3=O)c(Cl)c2)no1	0.5 to 5	≥ 5	≥ 5	–	–	–	–
Cc1nc(-c2ccc(-c3cc4cnc(NC5CCOCC5)nc4n(CC(=O)NCc4ccncc4)c3=O)c(Cl)c2)no1 [drawing 348]	0.05 to 0.5	≥ 5	≥ 5	–	–	–	–
CCn1c(=O)c(-c2ccc(-c3noc(C)n3)cc2Cl)cc2cnc(NC3CCOC(C)(C)C3)nc21 (stereo not shown)	0.05 to 0.5	≥ 5	≥ 5	–	–	–	–
CCn1c(=O)c(-c2ccc(-c3noc(C)n3)cc2Cl)cc2cnc(NN3CCOCC3)nc21	0.5 to 5	≥ 5	≥ 5	–	–	–	–
CCn1c(=O)c(-c2ccc(-c3cncc(C)n3)cc2Cl)cc2cnc(NC3CCC(CCN(C)C)CC3)nc21 (stereo not shown) [Example 70]	–	–	–	< 0.05	< 0.05	0.05 to 0.5	> 5
O=c1c(-c2ccc(-c3cccnc3)cc2Cl)cc2cnc(NC3CCOCC3)nc2n1Cc1ccccc1C(F)(F)F [Example 22]	–	–	–	0.05 to 0.5	< 0.05	0.05 to 0.5	> 5
CCn1c(=O)c(-c2ccc(-c3cncc(C)n3)cc2Cl)cc2cnc(NC3CNC(=O)C3)nc21 (stereo not shown) [Example 66]	–	–	–	0.05 to 0.5	< 0.05	0.05 to 0.5	> 5
CCn1c(=O)c(-c2ccc(-c3ccnnc3)cc2Cl)cc2cnc(N[C@@H]3CCOC3)nc21 [Example 62]	–	–	–	> 5	> 5	> 5	> 5
COCCCn1c(=O)c(-c2ccc(-c3cncc(C)n3)cc2Cl)cc2cnc(N[C@H]3CCOC3)nc21 [Example 65]	–	–	–	< 0.05	< 0.05	0.05 to 0.5	> 5
CCn1c(=O)c(-c2ccc(-c3nccnc3C)cc2Cl)cc2cnc(NC3C[C@@H](C)O[C@@H](C)C3)nc21 (stereo partly shown) [Example 38]	–	–	–	< 0.05	< 0.05	0.05 to 0.5	> 5
Cc1cncc(-c2ccc(-c3cc4cnc(NC(C)C)nc4n([C@H]4CC[C@H](N)CC4)c3=O)c(Cl)c2)n1 [Example 116]	–	–	–	< 0.05	< 0.05	< 0.05	0.5 to 5

Other lines, results leading:

IC50 (PAK1 [1]; [5]) [µM]	IC50 (PAK1 [1]; [6]) [µM]	IC50 (PAK4 [2]) [µM]	IC50 (PAK1 [3]) [µM]	IC50 (PAK2 (PAK65)) [µM]	IC50 (PAK3) [µM]	IC50 (PAK4 [4]) [µM]	SMILES
0.05 to 0.5	≥ 5	≥ 5	–	–	–	–	CCn1c(=O)c(-c2ccc(-c3noc(C)n3)cc2Cl)cc2cnc(N[C@@H]3CCO[C@@H]3N3CCN(C)CC3)nc21
< 0.05	0.5 to 5	≥ 5	–	–	–	–	Cc1nc(-c2ccc(-c3cc4cnc(NC5CCOCC5)nc4n(C4CCOC(C)(C)C4)c3=O)c(Cl)c2)no1 (stereo not shown)
< 0.05	0.5 to 5	≥ 5	–	–	–	–	Cc1nc(-c2ccc(-c3cc4cnc(NC5CCOCC5)nc4n(CCC4CCNCC4)c3=O)c(Cl)c2)no1 [drawing 343]
0.05 to 0.5	≥ 5	≥ 5	–	–	–	–	CCn1c(=O)c(-c2ccc(-c3noc(C)n3)cc2Cl)cc2cnc(NCc3ccncc3)nc21
0.05 to 0.5	≥ 5	≥ 5	–	–	–	–	Cc1nc(-c2ccc(-c3cc4cnc(NC5CCOCC5)nc4n(CC(=O)NC4CCNC4)c3=O)c(Cl)c2)no1 (stereo not shown) [drawing 346]
< 0.05	0.5 to 5	≥ 5	–	–	–	–	Cc1nc(-c2ccc(-c3cc4cnc(NC5CCOCC5)nc4n(CC(=O)NCCCN)c3=O)c(Cl)c2)no1
0.05 to 0.5	≥ 5	≥ 5	–	–	–	–	Cc1nc(-c2ccc(-c3cc4cnc(NC5CCOCC5)nc4n(C4CCN(CCN)C4)c3=O)c(Cl)c2)no1 (stereo not shown)
0.05 to 0.5	≥ 5	≥ 5	–	–	–	–	Cc1nc(-c2ccc(-c3cc4cnc(NC5CCOCC5)nc4n(C4CCN(C5CCNCC5)C4)c3=O)c(Cl)c2)no1 (stereo not shown)
< 0.05	0.5 to 5	≥ 5	–	–	–	–	Cc1nc(-c2ccc(-c3cc4cnc(NC5CCOCC5)nc4n(CC4CCNCC4)c3=O)c(Cl)c2)no1 [drawing 340]
0.05 to 0.5	≥ 5	≥ 5	–	–	–	–	CCN1CCC(Cn2c(=O)c(-c3ccc(-c4noc(C)n4)cc3Cl)cc3cnc(NC4CCOCC4)nc32)CC1
0.05 to 0.5	≥ 5	≥ 5	–	–	–	–	Cc1nc(-c2ccc(-c3cc4cnc(NC5CCOCC5)nc4n(C4CC4)c3=O)c(Cl)c2)no1
0.05 to 0.5	< 0.05	< 0.05	–	–	–	–	CCn1c(=O)c(-c2ccc(-c3noc(C)n3)cc2Cl)cc2cnc(N[C@@H]3C[C@H]3C)nc21
0.05 to 0.5	≥ 5	≥ 5	–	–	–	–	Cc1nc(-c2ccc(-c3cc4cnc(NC5CCOCC5)nc4n(CC4CCCNC4)c3=O)c(Cl)c2)no1 (stereo not shown)
0.05 to 0.5	0.5 to 5	≥ 5	–	–	–	–	Cc1nc(-c2ccc(-c3cc4cnc(NC5CC5)nc4n(Cc4cccc(CN(C)C)c4)c3=O)c(Cl)c2)no1
0.05 to 0.5	≥ 5	≥ 5	–	–	–	–	CCn1c(=O)c(-c2ccc(-c3noc(C)n3)cc2Cl)cc2cnc(NCCCO)nc21
0.05 to 0.5	≥ 5	≥ 5	–	–	–	–	Cc1nc(-c2ccc(-c3cc4cnc(NC5CCOCC5)nc4n(CC4CCCN(C)C4)c3=O)c(Cl)c2)no1 (stereo not shown)
0.05 to 0.5	≥ 5	≥ 5	–	–	–	–	CCn1c(=O)c(-c2ccc(-c3noc(C)n3)cc2Cl)cc2cnc(NCCC3CCN(C)CC3)nc21 [drawing 361]
0.05 to 0.5	≥ 5	≥ 5	–	–	–	–	Cc1nc(-c2ccc(-c3cc4cnc(NC5CCOCC5)nc4n(CC(=O)N4CCC(N)CC4)c3=O)c(Cl)c2)no1
0.05 to 0.5	≥ 5	≥ 5	–	–	–	–	Cc1nc(-c2ccc(-c3cc4cnc(NC5CCOCC5)nc4n(CC(=O)N4CCCC(N)C4)c3=O)c(Cl)c2)no1 (stereo not shown)
0.05 to 0.5	≥ 5	≥ 5	–	–	–	–	Cc1nc(-c2ccc(-c3cc4cnc(NC5CCOCC5)nc4n(Cc4ccc5c(c4)CNC5)c3=O)c(Cl)c2)no1
0.05 to 0.5	≥ 5	≥ 5	–	–	–	–	CCCCn1c(=O)c(-c2ccc(-c3noc(C)n3)cc2Cl)cc2cnc(NC3CCOCC3)nc21
